The subject of data set [1] is NCI-H226 (NF2 expression-deficient) human lung squamous cell carcinoma xenograft. In words: In vivo efficacy in subcutaneous NCI-H226 xenograft model. Particulars: QD, oral, day 45, NCI-H226 xenograft in BALB/c nude mice. As for the experimental part:
In vivo pharmacodynamics and efficacy studies of the compound represented by Formula I were performed in a subcutaneous NCI-H226 (NF2 expression-deficient) human lung squamous cell carcinoma xenograft model in BALB/c nude mice.
BALB/c nude female mice (6 weeks to 7 weeks) were inoculated subcutaneously with 1×10^7 NCI-H226 tumor cells on the right side of each. The inoculated cells were resuspended in a mixture solution of 0.1 mL of PBS and matrix gel Matrigel (PBS: Matrigel=1:1). Administration treatment was started in groups when the average tumor size reached about 100 mm^3 to 200 mm^3. From the date of grouping, the mice were orally administered the crystal form A of the compound represented by Formula I (solvent: 10% DMSO+10% Solutol (KollipHor HS15)+80% physiological saline) once a day for a total of 45 days (QD×45 days). Animals were regularly monitored for changes in body weight as an indicator of compound safety. Tumors were measured twice weekly using a caliper, and the volume was expressed in mm^3 using the formula “V=(L×W^2)/2”, where V is the tumor volume, L is the length of the tumor (the longest tumor dimension) and W is the width of the tumor (the longest tumor dimension perpendicular to L). Compound inhibitory activity was assessed by tumor growth inhibition TGI (%). […]

Data set [2] in a line: Hygroscopicity test (DVS). Type of data set: physicochemical.
The nature of data set [3]: Physicochemical stability test of the crystal form A. The note with it: influencing factors (40° C., 60° C., 92.5% RH, 75% RH, 4500Lx), accelerated test, long-term test. As for the experimental part: Referring to the requirements of “9001 Guidelines for Stability Test of APIs and Pharmaceutical Preparations” in the Chinese Pharmacopoeia, the stability test was conducted on the crystal form A of the compound represented by Formula I, and the specific test conditions are shown in Table 10.

The nature of data set [4]: Pressure stability of the crystal form A. The format is physicochemical. The note with it: pressure conditions of 150 kg and 230 kg.
Data set [5] relates to YAP/TAZ-TEAD transcription complex. Briefly: CTGF detection (ELISA method) in NCI-H2052 cells. Type of data set: cell-based, human. Particulars: NCI-H2052 cells (NF2 mutation), 24 hours incubation, CTGF in culture supernatant by ELISA; read-out: EC50 value (CTGF concentration response curve). As for the experimental part: The detection of CTGF expression level may assess the activity of the YAP/TAZ-TEAD transcription complex. CTGF expression level was quantitatively detected using a human SimpleStep ELISA® kit (Abcam, ab261851).
NCI-H2052 cells (purchased from ATCC, NF2 mutation) were cultured in RPMI 1640 complete medium (containing 10% FBS, 1% penicillin-streptomycin solution and I mM sodium pyruvate). The day before compound treatment, cultured cells were washed with PBS, digested with trypsin, and then collected by centrifugation. The supernatant was removed, and the cells were resuspended in fresh complete medium. Cells were counted and inoculated in 96-well plates at a density of 6500 cells/well. […]
The Human CTGF ELISA Kit uses an affinity labeled capture antibody and a reporter gene coupled detection antibody to immunocapture the sample analytes in the solution. […] 50 μL of standard or cell supernatant sample to be detected were added to the wells of the detection plate. […] Finally, the OD value at 450 nm of each well was read on a multifunctional microplate reader. The concentrations of the target CTGF protein in the samples were determined by standard curve.
The inhibitory activity of the compound of the present application on the transcription regulatory function of TEAD-YAP/TAZ was assessed by the CTGF concentration response curve of the compound. […]
Background: In an ELISA, binding on a coated surface is turned into a signal by an enzyme label.

A short description of data set [6]: Pharmacokinetics in plasma of mice after oral administration. The format is in vivo. Particulars: female, BALB/c, mouse, oral (gavage, clear solution), single dose 5 mg/kg. As for the experimental part:
Adult BALB/c female mice (6 weeks to 7 weeks) were received a single administration of the compound represented by Formula I containing 10% to 20% DMSO, 10% Solutol (KollipHor HS15) and 80% to 70% physiological saline as excipient. Mice (n=3) were administered orally (gavage, clear solution) at a dose of 5 mg/kg. Blood was collected after oral administration at the following points of time: 15 min, 30 min, 1 h, 2 h, 4 b, 7 h, and 24 h. About 0.1 mL of whole blood was collected from the retro-orbital venous plexus and placed in a test tube containing EDTA anticoagulant. Samples were centrifuged at 4° C. and 4000 rpm for 10 min. Plasma was transferred to a centrifugal tube and stored at −20° C. before analysis. The concentration of test compound in plasma samples was analyzed by liquid chromatography-tandem mass spectrometry (LC-MS/MS). Plasma concentration-time data from individual animals were analyzed using software Sciex Analyst. A non-compartmental model was introduced in the concentration analysis, and pharmacokinetic parameters of the test compound were calculated using software WinNonlin (version 4.1; pHarsight).

In another data set the test system is NCI-H226 cells. Briefly: Cell proliferation inhibitory activity detection (CTG detection). The format is cell-based. The note with it: Homo sapiens; NCI-H226 cells (NF2 expression-deficient), 144 h, CellTiter-Glo; read-out: IC50 value (inhibition of cell proliferation). On the procedure: The inhibition of the compound on cell proliferation was detected using CellTiter-Glo® Luminescent Cell Viability Assay Kit (Promega Company). NCI-H226 cells (purchased from ATCC, NF2 expression-deficient) were cultured in RPMI 1640 complete medium (containing 10% FBS, 1% penicillin-streptomycin solution and 1 mM sodium pyruvate). • a) The day before compound treatment, cultured cells were washed with PBS, digested with trypsin, and then collected by centrifugation. The supernatant was removed and the cells were resuspended in fresh RPMI 1640 complete medium. […] Finally, the luminescence signal value (RLU) of each well was read on a multifunctional microplate reader PE En Vision®.
Inhibition rate (IR) of the detected compound: IR (%)=(1−(RLU compound−RLU blank control)/(RLU solvent control−RLU blank control))*100%. The inhibition rates of the compounds at different concentrations were calculated in Excel, then software GraphPad Prism was used to generate inhibition curves, and the relevant parameters were calculated, including the minimum inhibition rate Bottom. the maximum inhibition rate Top and IC50. […]
A general note: Cellular ATP, detected with luciferase, serves as a proxy for viable cell number.

As to `C=C(F)C(=O)N1CC(n2c(=O)n(-c3ccc(C(F)(F)F)cc3)c3nccnc32)C1` [1-[1-(2-fluoroacryloyl)azetidin-3-yl]-3-(4-trifluoromethylphenyl)-1,3-dihydro-2H-imidazo[4,5-b]pyrazin-2-one], the “TGI (%)” value in data set [1] (10 mg/kg) is recorded as 109%; in data set [1] (50 mg/kg), 111%. The “Crystal form after the DVS test (XRPD)” value in data set [2] (after DVS test, XRPD detection) was “no change in the crystal form”. The “Hygroscopicity (DVS)” value in data set [2] (dynamic vapor sorption analyzer) was “no hygroscopicity”. Also, in data set [3], the “Change in crystal form, characteristics and content compared with day 0” value is “no significant change”. Further, the “Crystal form after pressing” value in data set [4] is “the crystal form was not changed”.

In the case of `C=C(F)C(=O)N1CC(n2c(=O)n(-c3ccc(C(F)(F)F)cc3)c3nccnc32)C1` [compound represented by Formula I, 1-[1-(2-fluoroacryloyl)azetidin-3-yl]-3-(4-trifluoromethylphenyl)-1,3-dihydro-2H-imidazo[4,5-b]pyrazin-2-one], the EC50 in data set [5] was 2 nM. In data set [6], this compound showed an area under the curve AUC(0-t) of 17200 ng·h/mL and a Cmax of 1970 ng/mL. Also, the IC50 in the data set on NCI-H226 cells turned out to be 7 nM.

As a reminder, the AUC(0-t) is exposure summed from dosing to a finite time, without extrapolation to infinity. A lower AUC(0-t) goes with less exposure. As a reminder, the Cmax is the peak of the concentration-time curve.

The values above are taken from patent US20250154149A1, “PHARMACEUTICAL COMPOSITION AND METHOD FOR PREPARING ACTIVE INGREDIENT COMPOUND THEREOF” (Betta Pharmaceuticals Co., Ltd., priority 2022, published 2025).
